How the values were obtained:
[1] = test system: pilocarpine-induced seizures; assay: Pilocarpine-induced chemoconvulsant seizure model; format: in vivo, mice; conditions: M084 10 mg/kg 30 min before pilocarpine 280 mg/kg, n=8
Procedure: After administration of scopolamine (1 mg/kg), control mice were pretreated with saline vehicle and then were administered pilocarpine (280 mg/kg) 30 min later.
The muscarinic agonist pilocarpine was used to induce seizures in vivo. Two-month-old mice were injected with scopolamine methylnitrate (1 mg/kg; MP Biomedicals) to block peripheral mAChRs 30 min before administration of pilocarpine hydrochloride (280 mg/kg; Sigma-Aldrich). Drugs were delivered via intraperitoneal injection in 0.9% sterile saline at a total volume equivalent to 1% of the mouse body weight. Control mice were given the same dose of scopolamine followed by vehicle saline 30 min later. […] Peak seizure activity was observed 60 min after pilocarpine delivery with occasional forelimb clonus.

DGGCs = assay: GCaMP6f brain slice Ca2+ imaging of DGGCs after sham or CCI-TBI; format: cell-based, mice
Text: Neuromodulation of TRPC generates robust Ca2+ influx and facilitates neuronal hyperexcitability. […] To assess the post-injury effect of TRPC channel upregulation on neurons, we used Ca2+ imaging in brain slice to measure excitability as a product of intracellular Ca2+ gating by TRPC1/4/5 channels (FIG. 4). […] Transgenic mice with the GCaMP6f transgene were used to detect changes in cellular Ca2+-activated fluorescence. We hypothesized that DGGC activity increases due to muscarinic stimulation with ACh or direct activation of TRPC4-containing channels with EA. Sensitivity was tested by bath perfusion of ACh or EA to the slice for 5 minutes during Ca2+ imaging to quantify peak amplitude of GCaMP6f fluorescence per cell, duration of Ca2+ influx, and the field-frequency of events (FIG. 4).
Brain slice Ca2+ imaging. Transverse slices (300 μm) of hippocampus were cut with a vibratome (Thermo Scientific Microm HM650V) from Cre-CamK2+/GCamp6f+/− mice. […] Hippocampal slices were maintained in oxygenated ACSF at 30° C. for 60 min, and experiments performed at 28° C. […] Neurons were visually identified with a Nikon FN-1 microscope equipped with a 40× water-immersion objective and infrared differential interference contrast. GCaMP6f fluorescence was obtained using a SOLA Light Engine Illumination source (Lumecor) with an output of 3.5W through a 3 mm diameter liquid light guide through a Nikon ET-GFP filter. Nikon Elements software was used for image acquisition through a QIClick CCD camera (Qlmaging) with a Uniblitz Model VMM-D 1 shutter driver. Baseline time series of the DG granule layer were acquired in the presence of bath solution perfusion for 2 min. […] Images were acquired in time series with an exposure time of 200 ms at 2-10 fps at 12-bit rate and no binning. Time-series image stacks were processed with ImageJ. Images were background subtracted using the mean of the 5% lowest pixel values. Ca2+ signal events were quantified for each cell as change in fluorescence divided by the baseline fluorescence (ΔF/FO) after background subtraction. ROI signals were detrended before quantification to account for drift due to gradual photobleaching of the background.

TRPC4/5 channels = conditions: description from literature; cited from earlier work

CCCCNc1nc2ccccc2[nH]1 [M084, N-butyl-1H-benzimidazol-2-amine]
mean maximum Racine seizure stage [1]: 1.1±0.5
status epilepticus [1]: not observed in any animal
Ca2+ peak amplitude (DGGCs; EA 1 μM + M084 10 μM, ipsilateral DGGCs from TBI mice): 1.44±0.05 ΔF/F
duration of Ca2+ influx (DGGCs; M084 10 μM added to EA 1 μM): attenuated the duration of influx to baseline levels
effect on TRPC4/5 channels (TRPC4/5 channels): potent inhibitor or antagonist

Reference: patent US11878012B2, “Compositions and methods for treating traumatic brain injury” (Board of Regents, the University of Texas System, priority 2020, dated 2024)
